{
  "source": "patent US20220362276A1",
  "about": "“Small Molecule Inhibitors of Viral Replication” (The Trustees of Princeton University, priority 2019, published 2022)",
  "key": {"[1]": {"test_system": "SHEV-3/Gluc (genotype 3, swine-derived)", "assay": "Dose titration against SHEV-3/Gluc replicon", "details": "genotype 3, poor replicative capacity"}, "[2]": {"biological_target": "HSP90AA1 (Hsp90α1) (Homo sapiens, UniProt P07900)", "assay": "Two-dimensional thermal proteome profiling (CETSA) in crude cell extract", "details": "isocotoin 0.5-30 μM, 37-66.3 °C"}, "[3]": {"test_system": "full-length KernowC1p6", "assay": "RT-qPCR of HEV RNA, full-length KernowC1p6 in Huh7 cells", "format": "cell-based, hepatitis E virus", "details": "6.25-25 μM isocotoin, day 6", "protocol": "Quantification of HEV RNA by RT-qPCR Assay. Huh7 cells were seeded 42,000 cells/well in 24-well plates. One day post-seeding, the cells were transfected with 10 ng/well KernowC1p6 or KernowC1p6-GAD in vitro transcribed RNA. The next day, the medium on the cells transfected with KernowC1p6 was changed to 0.1% DMSO medium containing 25 μM, 12.5 μM, 6.25 μM, or 0 μM isocotoin. The negative control cells transfected with KernowC1p6-GAD were maintained in medium with 0.1% DMSO. The media on the cells was changed every 2 days to fresh drug-containing or DMSO-containing media. On day 6, cells were harvested and lysed in RLT buffer using 350 μL per well. Cell lysates were homogenized by pipetting 6-7 times with a needle syringe. Total RNA was extracted using BioBasic RNA MiniPreps SuperKit (Amherst, N.Y.). RT-qPCR was performed on the samples using qScript XLT 1-Step RT-qPCR ToughMix (Quanta Bio) according to the manufacturer's instructions. In vitro transcribed KernowC1p6 RNA of known concentration was serially diluted 1:10 and included as controls to generate a standard curve to calculate absolute RNA copies/μL in the samples."}, "[4]": {"biological_target": "T1, STOML2 (Homo sapiens, UniProt Q9UJZ1)", "T1 sequence (Q9UJZ1 29-356)": "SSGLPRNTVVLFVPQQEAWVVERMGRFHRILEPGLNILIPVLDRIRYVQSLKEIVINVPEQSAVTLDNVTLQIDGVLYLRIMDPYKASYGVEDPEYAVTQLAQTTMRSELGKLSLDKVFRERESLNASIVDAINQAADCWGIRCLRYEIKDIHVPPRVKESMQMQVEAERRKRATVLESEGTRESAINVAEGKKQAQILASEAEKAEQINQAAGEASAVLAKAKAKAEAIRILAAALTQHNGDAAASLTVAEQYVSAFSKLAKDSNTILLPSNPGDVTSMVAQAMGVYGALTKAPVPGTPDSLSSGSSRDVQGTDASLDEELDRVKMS", "assay": "Two-dimensional thermal proteome profiling (CETSA) in crude cell extract", "details": "isocotoin 0.5-30 μM, 37-66.3 °C"}},
  "note": "“Also recorded” adds a separate entry of the source.",
  "data": [
    {"smiles": "COc1cc(O)cc(O)c1C(=O)c1ccccc1", "note": "[isocotoin, 4-benzoyl-5-methoxybenzene-1,3-diol]", "values": [
      {"measurement": "inhibition of SHEV-3/Gluc replication, in words", "setting": "[1]", "result": "modest inhibitory effect; also recorded: inhibits replication"},
      {"measurement": "thermal stabilization / soluble protein fraction of HSP90AA1", "setting": "[2]", "result": "thermal stabilization; also recorded: among hits showing the greatest increase in soluble protein fraction"},
      {"measurement": "inhibition of full-length KernowC1p6 replication, in words", "setting": "[3]", "result": "dose-dependent manner; also recorded: inhibits replication"},
      {"measurement": "soluble protein fraction of STOML2", "setting": "[4]", "result": "among hits showing the greatest increase in soluble protein fraction"}
    ]}
  ]
}
